The record followed here is ChEMBL document CHEMBL1130631, “Synthesis of benzo[c]quinolizin-3-ones: selective non-steroidal inhibitors of steroid 5 alpha-reductase 1” (Bioorg Med Chem Lett, 1998).

The target in assay [1] is T1, 3-oxo-5-alpha-steroid 4-dehydrogenase 1 (Homo sapiens, UniProt P18405).
T1 sequence (P18405 whole entry): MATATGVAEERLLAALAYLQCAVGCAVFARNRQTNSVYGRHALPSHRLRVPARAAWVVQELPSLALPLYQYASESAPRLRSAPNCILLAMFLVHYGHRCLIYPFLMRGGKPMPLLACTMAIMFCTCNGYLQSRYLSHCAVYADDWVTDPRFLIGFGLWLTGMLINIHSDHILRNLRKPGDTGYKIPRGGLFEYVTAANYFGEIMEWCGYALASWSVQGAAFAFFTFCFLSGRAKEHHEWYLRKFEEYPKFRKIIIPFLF
Nature of the assay: Compound was evaluated for the inhibition of human Steroid 5-alpha-reductase type 1 from recombinant CHO cells. In kind it is cell-based.

The target in assay [2] is T2, 3-oxo-5-alpha-steroid 4-dehydrogenase 2 (Homo sapiens, UniProt P31213).
T2 sequence (P31213 whole entry): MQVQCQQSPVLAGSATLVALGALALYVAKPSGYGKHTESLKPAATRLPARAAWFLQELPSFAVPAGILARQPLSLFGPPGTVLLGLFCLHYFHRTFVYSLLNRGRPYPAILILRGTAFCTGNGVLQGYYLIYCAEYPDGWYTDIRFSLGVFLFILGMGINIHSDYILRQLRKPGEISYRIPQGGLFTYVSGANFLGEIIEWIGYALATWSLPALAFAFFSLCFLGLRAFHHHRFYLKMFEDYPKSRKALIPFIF
Nature of the assay: Compound was evaluated for the inhibition of human Steroid 5-alpha-reductase type 2 receptor from human prostate homogenates. It is filed as tissue-based, Prostate gland.

The target in assay [3] is T2, 3-oxo-5-alpha-steroid 4-dehydrogenase 2. The assay can be described thus: Compound was evaluated for the inhibition of human Steroid 5-alpha-reductase type 2 receptor from human prostate homogenates. It is filed as tissue-based, Prostate gland.
Assay [4] addresses T1, 3-oxo-5-alpha-steroid 4-dehydrogenase 1. Nature of the assay: Compound was evaluated for the inhibition of human Steroid 5-alpha-reductase type 1.
The target of assay [5] is T2, 3-oxo-5-alpha-steroid 4-dehydrogenase 2. Nature of the assay: Compound was evaluated for the inhibition of human Steroid 5-alpha-reductase type 2 from human prostate homogenates.; No inhibition. It is filed as tissue-based, Prostate gland.
Assay [6] has as its target T1, 3-oxo-5-alpha-steroid 4-dehydrogenase 1. The assay can be described thus: Compound was evaluated for the inhibition of human Steroid 5-alpha-reductase type 1.
Assay [7] addresses T2, 3-oxo-5-alpha-steroid 4-dehydrogenase 2. The assay can be described thus: Compound was evaluated for the inhibition of human Steroid 5-alpha-reductase type 2.
Assay [8] shares this target. The assay can be described thus: Compound was evaluated for the inhibition of human Steroid 5-alpha-reductase type 2 from human prostate homogenates; No inhibition. In kind it is tissue-based, Prostate gland.

Molecules are shown by their SMILES. Where only a bound is given, the exact number is not on record here.

As to `CC(C)(C)NC(=O)[C@H]1CC[C@H]2[C@@H]3CC[C@H]4NC(=O)C=C[C@]4(C)[C@H]3CC[C@]12C` [FINASTERIDE], the results for the IC50 in assay [1] and in assay [2] were 911 nM and 1.2 nM, respectively.

Turning to `CC(C)(C)NC(=O)[C@@H]1CCC2C3CCC4=CC(=O)CCN4C3=CC[C@@]21C` (stereo not given in full), the IC50 (as a rule, the concentration that gives 50% inhibition) in assay [3] was found to be 122 nM; in assay [4], 127 nM.

Turning to `O=C1C=C2CCc3ccccc3N2CC1`, the IC50 in assay [1] was 298 nM; in assay [5], “Not Active”.

In the case of `CN1C(=O)CC[C@]2(C)c3ccc(Cl)cc3CCC12` (stereo not given in full), the Ki (in general, a measure of affinity in units of concentration, obtained from inhibition or displacement) in assay [6] is 9 nM; in assay [7], over 1000 nM.

On to `O=C1C=CN2c3ccccc3CCC2C1` (stereo not given), for which the results for the IC50 in assay [1] and in assay [8] were 5130 nM and “Not Active”, respectively.
